# Measurements from article PMC7281614, “Induction of Antibacterial Metabolites by Co-Cultivation of Two Red-Sea-Sponge-Associated Actinomycetes Micromonospora sp. UR56 and Actinokinespora sp. EG49” (Marine Drugs, 2020).
# Read-outs that look alike come from different tables or passages of the source.
# How the values were obtained:
# B. subtilis = assay: Antibiofilm activity, crystal violet staining; type: cell-based; details: Bacillus subtilis, NA: no activity
# Procedure: (§1) The biofilm-inhibitory activities of the isolated pure compounds (1–3, 9, and 10) were measured using 96 well flat polystyrene plates against four clinical microbes comprising Gram-positive (Bacillus subtilis and Staphylococcus aureus) and Gram-negative (Escherichia coli and Pseudomonas aeruginosa) pathogenic bacteria, according to Antunes, et al. with some modifications. Briefly, each well was filled with 180 µL lysogeny broth (LB broth) and then inoculated with 10 µL of pathogenic bacteria followed by addition of 10 µL of sample (2 µM) along with control (without test sample). All inoculated plates were then incubated overnight at 37 °C and, after incubation, content in the wells was removed and wells were rinsed with 200 µL of phosphate-buffered saline (PBS) pH 7.2 to eliminate free-floating microbes and left to dry under sterilized laminar flow for 1 h. For staining, 200 µL/well of crystal violet (0.1%, w/v) was added, left for 1 h, and then excessive stain was removed and plates retained for drying. Further, dried plates were rinsed with 95% ethanol and optical density was measured at 570 nm using a Spectrostar Nano Microplate Reader (BMG LABTECH GmbH, Allmendgrun, Germany).
# E. coli = assay: Antibiofilm activity, crystal violet staining; type: cell-based; details: Escherichia coli, read-out: Antibiofilm activity (% inhibition) E. coli
# Procedure: as §1
# in vitro = details: human
# Procedure: (§2) The cell lines were purchased from ATCC by (VACSERA), Cairo, Egypt. […] The cell lines were used to detect the inhibitory effects of isolated compounds on cell growth. Cell viability was determined via colorimetric assay (MTT), which is based on the transformation of the yellow tetrazolium bromide to a purple formazan by mitochondrial succinate dehydrogenase. […] Subsequently, the cells were mixed with different concentrations of the isolated compounds and incubated for a further 24 h, and then treated with 20 µL of MTT solution at a concentration of 5 mg/mL and incubated for 4 h. […] The relative cell viability as a percentage was calculated as A570 of treated samples/A570 of untreated sample × 100.
# [1] = tested on: Escherichia coli ATCC25922; assay: Antibacterial activity, growth inhibition in 96 well plates (OD600); type: cell-based
# Procedure: (§3) The antibacterial activity of all isolated pure compounds (1–3, 9, and 10) was evaluated on Gram-positive pathogenic bacteria such as Bacillus subtilis (ATCC29212) and Staphylococcus aureus (ATCC9144 (and Gram-negative pathogenic bacteria such as Escherichia coli. (ATCC25922) and Pseudomonas aeruginosa (ATCC27853), as previously reported. The tests were carried out in 96 well flat polystyrene plates. First, 10 μL of each isolated compound (15 µM) was transferred to 80 μL of lysogeny broth followed by the addition of 10 μL of bacterial suspension at log phase, and then all inoculated plates were incubated overnight at 37 °C. […] The absorbance was observed after 20 h at OD600 in a Spectrostar Nano Microplate Reader (BMG LABTECH GmbH, Allmendgrun, Germany). The positive control was pathogenic bacteria plus distilled water, while the negative control was growth medium plus distilled water.
# [2] = tested on: Pseudomonas aeruginosa ATCC27853; assay: as above; type: cell-based; details: NA: no activity; for inhibition at 15 µM: Pseudomonas aeruginosa; for Growth inhibition % Pseudomonas aeruginosa: at 15 µM, 15 µM
# Procedure: as §3
# [3] = tested on: Bacillus subtilis ATCC29212; assay: as above; type: cell-based
# Procedure: as §3
# [4] = tested on: Staphylococcus aureus ATCC9144; assay: as above; type: cell-based; details: NA: no activity; for inhibition at 15 µM: Staphylococcus aureus, ATCC9144, at 15 µM; for Growth inhibition % Staphylococcus aureus: at 15 µM, 15 µM
# Procedure: as §3
# S. aureus = assay: Antibiofilm activity, crystal violet staining; type: cell-based, Staphylococcus aureus; details: NA: no activity; for inhibition at 2 µM: Staphylococcus aureus; for Antibiofilm activity (% inhibition) S. aureus: at 2 µM, 2 µM
# Procedure: as §1
# [5] = target: Staphylococcus pyruvate kinase (PK) (Staphylococcus aureus, UniProt Q6GG09); assay: In vitro enzyme assay, pyruvate kinase inhibition; type: biochemical; details: IC50 ± SD
# Sequence of Staphylococcus pyruvate kinase (PK) (Q6GG09 whole entry): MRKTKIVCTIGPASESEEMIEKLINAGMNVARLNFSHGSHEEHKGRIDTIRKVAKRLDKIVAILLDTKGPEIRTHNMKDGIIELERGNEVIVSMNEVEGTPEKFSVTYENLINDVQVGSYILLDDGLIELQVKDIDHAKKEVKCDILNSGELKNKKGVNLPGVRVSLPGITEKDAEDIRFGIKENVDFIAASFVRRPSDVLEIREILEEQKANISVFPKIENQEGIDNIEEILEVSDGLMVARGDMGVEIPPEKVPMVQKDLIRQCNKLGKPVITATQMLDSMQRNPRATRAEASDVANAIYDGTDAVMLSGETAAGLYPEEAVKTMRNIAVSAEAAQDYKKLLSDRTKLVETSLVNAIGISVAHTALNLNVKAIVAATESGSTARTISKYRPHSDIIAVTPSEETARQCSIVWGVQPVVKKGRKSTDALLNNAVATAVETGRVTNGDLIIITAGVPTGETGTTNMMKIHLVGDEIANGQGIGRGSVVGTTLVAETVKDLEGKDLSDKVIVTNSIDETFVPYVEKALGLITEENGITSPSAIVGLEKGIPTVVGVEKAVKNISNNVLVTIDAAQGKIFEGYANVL
# Procedure: (§4) DNA gyrase (type II topoisomerase) and topoisomerase IV (ParE) add negative supercoils into DNA using ATP hydrolysis as a source of energy. They are considered crucial bacterial enzymes that are absent in eukaryotes. DNA-gyrase-B- and ParE-inhibitory activities were evaluated using the Inspiralis assay kit (Inspiralis®, London, UK) on streptavidin-coated 96 well microtiter plates (Thermo Scientific, Hamburg, Germany), according to the manufacturer’s protocol. The assay detects the ability of the isolated compounds to prevent the ATPase activity of both gyrase-B and ParE subunits. On the other hand, pyruvate kinase (PK) has been discovered to be an important hub protein in the interactome of MRSA [52]. The PK-inhibitory activity of the isolated compounds was assessed according to a previously reported method.
# [6] = target: T1, Staphylococcus DNA gyrase-B (Staphylococcus aureus, UniProt P0A0K8); assay: In vitro enzyme assay, DNA gyrase-B ATPase (Inspiralis kit); type: biochemical
# T1 construct: purchased Inspiralis
# T1 sequence (P0A0K8 whole entry): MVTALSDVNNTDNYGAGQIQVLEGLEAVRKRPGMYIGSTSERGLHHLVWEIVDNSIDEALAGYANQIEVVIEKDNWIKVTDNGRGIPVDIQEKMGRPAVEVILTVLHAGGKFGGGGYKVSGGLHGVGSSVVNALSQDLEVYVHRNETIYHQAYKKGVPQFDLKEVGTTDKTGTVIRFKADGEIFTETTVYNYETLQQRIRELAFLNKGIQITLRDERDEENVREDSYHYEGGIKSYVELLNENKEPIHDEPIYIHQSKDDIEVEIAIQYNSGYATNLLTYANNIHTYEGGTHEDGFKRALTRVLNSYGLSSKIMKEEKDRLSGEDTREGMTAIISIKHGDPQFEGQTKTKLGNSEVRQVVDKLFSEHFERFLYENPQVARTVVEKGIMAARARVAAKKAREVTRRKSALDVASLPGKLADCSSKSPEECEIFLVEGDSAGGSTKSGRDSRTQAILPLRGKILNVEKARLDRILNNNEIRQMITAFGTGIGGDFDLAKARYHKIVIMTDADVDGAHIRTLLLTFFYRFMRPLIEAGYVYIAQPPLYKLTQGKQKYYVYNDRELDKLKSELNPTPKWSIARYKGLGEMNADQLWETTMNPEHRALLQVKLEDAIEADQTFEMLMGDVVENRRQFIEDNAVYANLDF
# T1 sequence (P20831 whole entry partner): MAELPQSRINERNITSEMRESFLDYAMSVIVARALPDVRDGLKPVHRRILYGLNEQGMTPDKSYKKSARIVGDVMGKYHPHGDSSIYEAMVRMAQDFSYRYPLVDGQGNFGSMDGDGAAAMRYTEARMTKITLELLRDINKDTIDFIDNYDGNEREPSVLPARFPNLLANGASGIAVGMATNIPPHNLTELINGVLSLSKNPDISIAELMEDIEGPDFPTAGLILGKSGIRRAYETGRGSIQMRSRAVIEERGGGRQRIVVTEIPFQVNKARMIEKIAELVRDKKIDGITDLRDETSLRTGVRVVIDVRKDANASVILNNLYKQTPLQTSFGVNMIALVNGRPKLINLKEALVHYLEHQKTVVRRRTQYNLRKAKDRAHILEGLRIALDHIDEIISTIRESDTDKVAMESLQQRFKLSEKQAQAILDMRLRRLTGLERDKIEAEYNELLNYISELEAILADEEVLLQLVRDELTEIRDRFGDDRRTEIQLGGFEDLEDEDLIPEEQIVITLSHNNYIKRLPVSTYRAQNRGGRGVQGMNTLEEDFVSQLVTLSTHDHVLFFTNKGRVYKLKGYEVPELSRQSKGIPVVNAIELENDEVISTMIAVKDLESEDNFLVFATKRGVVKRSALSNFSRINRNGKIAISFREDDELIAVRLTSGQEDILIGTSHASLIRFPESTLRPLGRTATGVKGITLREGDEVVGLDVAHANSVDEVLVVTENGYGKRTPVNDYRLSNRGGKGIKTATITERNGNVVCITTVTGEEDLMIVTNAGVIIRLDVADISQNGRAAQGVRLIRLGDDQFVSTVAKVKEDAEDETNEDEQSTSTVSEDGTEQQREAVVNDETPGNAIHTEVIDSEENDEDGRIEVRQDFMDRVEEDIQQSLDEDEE
# Procedure: as §4
# HePG-2 = assay: Cytotoxic activity, MTT assay; type: cell-based; details: Homo sapiens, read-out: Cytotoxic activity (IC50) HePG-2
# From the text: (§5) Doxorubicin was used as a positive control drug.
# P. aeruginosa = assay: Antibiofilm activity, crystal violet staining; type: cell-based, Pseudomonas aeruginosa; details: for inhibition at 2 µM: Pseudomonas aeruginosa
# Procedure: as §1
# HCT116 = assay: Cytotoxic activity, MTT assay; details: Homo sapiens, HCT-116, 24 h, read-out: Cytotoxic activity (IC50) HCT116
# Procedure: as §2
# MCF7 = assay: Cytotoxic activity, MTT assay; details: Homo sapiens, MCF7, 24 h, read-out: Cytotoxic activity (IC50) MCF7
# Procedure: as §2
# [7] = tested on: four human cancer cell lines; assay: Cytotoxic activity, MTT assay, all four tested cell lines together; type: cell-based; details: range over WI38, HCT116, HePG-2, MCF7, read-out: IC50 values towards the tested cell lines (range)
# From the text: as §5
# [8] = ATCC25922, at 15 µM, NA: no activity, read-out: Growth inhibition % Escherichia coli
# [9] = ATCC27853, at 15 µM, read-out: Growth inhibition % Pseudomonas aeruginosa
# [10] = ATCC29212, at 15 µM, NA: no activity, read-out: Growth inhibition % Bacillus subtilis
# [11] = IC50 ± SD, read-out: IC50 (µM) Gyr-B
# [12] = at 2 µM, read-out: Antibiofilm activity (% inhibition) P. aeruginosa
SMILES,inhibition at 2 µM (B. subtilis) [%],inhibition at 2 µM (E. coli; at 2 µM) [%],IC50 at 24 h (in vitro) [µM],"inhibition at 15 µM [1, 8] [%]","inhibition at 15 µM [2, 9] [%]","inhibition at 15 µM [3, 10] [%]",inhibition at 15 µM [4] [%],inhibition at 2 µM (S. aureus) [%],IC50 [5] [µM],"IC50 (HePG-2; HepG2, 24 h) [µM]",inhibition at 2 µM (P. aeruginosa; [12]) [%],IC50 (HCT116) [µM],IC50 (MCF7) [µM],also measured
"COC(=O)c1cccc2nc3c(C(=O)OC)cccc3nc12 [Compound 1, dimethyl phenazine-1,6-dicarboxylate]",12.1 ± 3.2,36.7 ± 2.9,63.2 ± 3.6,9.93 ± 1.3,23.4 ± 1.7,19.6 ± 1.5,47,50,7.2 ± 0.07,92.1 ± 4.7,18.4 ± 0.9,85 ± 3.9,> 100,"Growth inhibition % Staphylococcus aureus [4]: 57.19 ± 1.2%; Antibiofilm activity (% inhibition) S. aureus (S. aureus): 50.26 ± 0.4%; IC50 [6, 11]: 19.2 ± 1.69 µM"
"COC(=O)c1cccc2nc3c(C(=O)O)cccc3nc12 [Compound 2, phenazine-1,6-dicarboxylic acid mono methyl ester]",18.6 ± 1.6,54.1 ± 2.5,76.3 ± 3.9,11.2 ± 1.4,23.2 ± 2.2,32.1 ± 1.3,69,75,9.3 ± 0.03,76.1 ± 3.9,22.3 ± 1.5,60.8 ± 3.5,82.2 ± 4.4,"Growth inhibition % Staphylococcus aureus [4]: 68.87 ± 0.8%; Antibiofilm activity (% inhibition) S. aureus (S. aureus): 75.10 ± 2.4%; IC50 [6, 11]: 21.3 ± 2.36 µM"
"O=C(O)c1cccc2nc3ccccc3nc12 [Compound 3, phenazine-1-carboxylic acid]",,,51.2 ± 3.2,,,,,,22.5 ± 0.04,> 100,,91.3 ± 4.6,> 100,"inhibition at 2 µM (E. coli): 54.7 ± 1.4%; inhibition at 15 µM ([1]; ATCC25922, read-out: Growth inhibition % Escherichia coli): 24.3 ± 1.8%; inhibition at 15 µM ([2]; ATCC27853, read-out: Growth inhibition % Pseudomonas aeruginosa, at 15 µM): 94%; Growth inhibition % Pseudomonas aeruginosa [2]: 94.17 ± 2.8%; inhibition at 15 µM ([3]; ATCC29212, read-out: Growth inhibition % Bacillus subtilis): 1.69 ± 1.2%; IC50 [6]: 27.7 ± 1.08 µM; inhibition at 2 µM (P. aeruginosa; read-out: Antibiofilm activity (% inhibition) P. aeruginosa, at 2 µM): 94%; Antibiofilm activity (% inhibition) P. aeruginosa (P. aeruginosa; at 2 µM): 93.98 ± 2.2%"
"CC(=O)Nc1ccccc1O [Compound 9, N-(2-hydroxyphenyl)-acetamide]",4.91 ± 1.8,34.5 ± 2.6,36.5 ± 2.3,,4.74 ± 1.6,,,11.5 ± 2.9,,10.2 ± 0.9,7.39 ± 1.9,14.6 ± 1.2,12.7 ± 1.1,IC50 [7]: 10 to 36 µM
"COc1ccc(C(N)=O)cc1 [Compound 10, p-anisamide]",20.3 ± 1.1,57.5 ± 3.1,> 100,19.3 ± 2.5,70,42.2 ± 1.9,53.2 ± 1.2,61.2 ± 3.7,,> 100,73,> 100,> 100,Growth inhibition % Pseudomonas aeruginosa [2]: 70.23 ± 1.1%; Antibiofilm activity (% inhibition) P. aeruginosa (P. aeruginosa; at 2 µM): 73.52 ± 1.3%
"COc1cccc2c1C(=O)c1c(O)c3c(c(O)c1C2=O)C[C@@](O)(C(=O)CO)C[C@@H]3O[C@H]1C[C@H](N)[C@H](O)[C@H](C)O1 [Doxorubicin, reference compound]",,,,,,,,,,,,,,"IC50 (HePG-2; HepG2, MTT, 24 h, table title prints ""at 2 µM""): 4.5 ± 0.2 µM"
"CNC(C)C1CCC(N)C(OC2C(N)CC(N)C(OC3OCC(C)(O)C(NC)C3O)C2O)O1 (centres unmarked) [Gentamicin, reference compound]",,,,99 ± 0.6,99.7 ± 0.2,97 ± 1.6,99.1 ± 0.7,,,,,,,
